According to ChEMBL document CHEMBL4033793, “Potent and Selective Inhibitors of Human Sirtuin 5” (J Med Chem, 2018):
Residues, ends and D or L forms follow the SMILES beside them. *: point of attachment. X65 = O=C(O)[C@H](CC(=O)*)SCc1cccc([N+](=O)[O-])c1; X15 = CC(C)(C)c1ccc(CS[C@H](CC(=O)*)C(=O)O)cc1; X32 = O=C(O)[C@H](CC(=O)*)SCc1ccc(C(F)(F)F)cc1; X62 = Cc1cc(C)c(CS[C@@H](CC(=O)*)C(=O)O)c(C)c1; X17 = O=C(O)[C@@H](CC(=O)*)Sc1cc(Cl)cc(Cl)c1; X58 = O=C(O)[C@@H](CC(=O)*)Sc1cccc(Cl)c1Cl; X50 = O=C(O)[C@H](CC(=O)*)Sc1cc(Cl)ccc1Cl; X57 = O=C(O)[C@@H](CC(=O)*)Sc1ccc(Cl)cc1; X61 = O=C(O)[C@@H](CC(=O)*)Sc1cccc(Cl)c1; X48 = O=C(O)[C@@H](CC(=O)*)SCCCc1ccccc1; X26 = O=C(O)[C@@H](CC(=O)*)SCCc1ccccc1; X60 = O=C(O)[C@@H](CC(=O)*)SCc1ccccc1; X8 = O=C(O)[C@H](CC(=O)*)Sc1ccccc1; X44 = CC(CC(=O)*)Sc1ccc2ccccc2c1; X4 = O=C(O)C(CC(=O)*)Cc1ccccc1; Bz = O=C(c1ccccc1)*

These molecules were tested against NAD-dependent protein deacylase sirtuin-5, mitochondrial (Homo sapiens, UniProt Q9NXA8) (assay: Inhibition of human recombinant N-terminal Strep2-tagged SIRT5 expressed in Escherichia coli BL21 (DE3) using Abz-GVLK(glutaryl)AY(NO2)GV-NH2 as substrate in presence of NAD+ by fluorescence assay).
NAD-dependent protein deacylase sirtuin-5, mitochondrial, sequence (Q9NXA8 whole entry): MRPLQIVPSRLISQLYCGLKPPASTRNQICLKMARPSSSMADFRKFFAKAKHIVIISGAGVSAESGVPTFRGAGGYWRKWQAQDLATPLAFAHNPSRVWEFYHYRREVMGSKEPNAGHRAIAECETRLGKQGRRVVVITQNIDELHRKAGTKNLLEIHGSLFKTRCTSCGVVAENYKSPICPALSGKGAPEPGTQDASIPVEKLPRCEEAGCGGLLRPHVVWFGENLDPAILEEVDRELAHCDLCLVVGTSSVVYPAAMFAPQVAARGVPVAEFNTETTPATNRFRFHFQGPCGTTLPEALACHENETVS

| IC50 [µM] | Ki [µM] | SMILES |
| --- | --- | --- |
| 0.274 | 0.135 | CC(C)C[C@H](NC(=O)[C@@H](NC(=O)CNC(=O)c1ccccc1)C(C)C)C(=O)N[C@@H](CCCCNC(=O)C[C@H](Sc1ccccc1)C(=O)O)C(=O)N[C@@H](CCC(=O)O)C(=O)N[C@@H](Cc1ccc(O)cc1)C(=O)NCC(=O)N[C@H](C(N)=O)C(C)C (Bz-GVLK(X8)EYGV-NH2) |
| 0.295 |  | CC(C)C[C@H](NC(=O)[C@@H](NC(=O)CNC(=O)c1ccccc1)C(C)C)C(=O)N[C@@H](CCCCNC(=O)C[C@H](Sc1cc(Cl)ccc1Cl)C(=O)O)C(=O)N[C@@H](CCC(=O)O)C(=O)N[C@@H](Cc1ccc(O)cc1)C(=O)NCC(=O)N[C@H](C(N)=O)C(C)C (Bz-GVLK(X50)EYGV-NH2) |
| 1.12 | 0.263 | CC(C)C[C@H](NC(=O)[C@@H](NC(=O)CNC(=O)c1ccccc1)C(C)C)C(=O)N[C@@H](CCCCNC(=O)CC(Cc1ccccc1)C(=O)O)C(=O)N[C@@H](CCC(=O)O)C(=O)N[C@@H](Cc1ccc(O)cc1)C(=O)NCC(=O)N[C@H](C(N)=O)C(C)C (stereo partly drawn) (Bz-GVLK(X4)EYGV-NH2) |
| 0.644 |  | CC(C)C[C@H](NC(=O)[C@@H](NC(=O)CNC(=O)c1ccccc1)C(C)C)C(=O)N[C@@H](CCCCNC(=O)C[C@@H](SCc1ccccc1)C(=O)O)C(=O)N[C@@H](CCC(=O)O)C(=O)N[C@@H](Cc1ccc(O)cc1)C(=O)NCC(=O)N[C@H](C(N)=O)C(C)C (Bz-GVLK(X60)EYGV-NH2) |
| 2.71 |  | CC(C)C[C@H](NC(=O)[C@@H](NC(=O)CNC(=O)c1ccccc1)C(C)C)C(=O)N[C@@H](CCCCNC(=O)C[C@H](SCc1cccc([N+](=O)[O-])c1)C(=O)O)C(=O)N[C@@H](CCC(=O)O)C(=O)N[C@@H](Cc1ccc(O)cc1)C(=O)NCC(=O)N[C@H](C(N)=O)C(C)C (Bz-GVLK(X65)EYGV-NH2) |
| 0.803 |  | CC(C)C[C@H](NC(=O)[C@@H](NC(=O)CNC(=O)c1ccccc1)C(C)C)C(=O)N[C@@H](CCCCNC(=O)C[C@H](SCc1ccc(C(F)(F)F)cc1)C(=O)O)C(=O)N[C@@H](CCC(=O)O)C(=O)N[C@@H](Cc1ccc(O)cc1)C(=O)NCC(=O)N[C@H](C(N)=O)C(C)C (Bz-GVLK(X32)EYGV-NH2) |
| 1.38 |  | CC(C)C[C@H](NC(=O)[C@@H](NC(=O)CNC(=O)c1ccccc1)C(C)C)C(=O)N[C@@H](CCCCNC(=O)C[C@@H](Sc1cccc(Cl)c1)C(=O)O)C(=O)N[C@@H](CCC(=O)O)C(=O)N[C@@H](Cc1ccc(O)cc1)C(=O)NCC(=O)N[C@H](C(N)=O)C(C)C (Bz-GVLK(X61)EYGV-NH2) |
| 5.2 |  | Cc1cc(C)c(CS[C@@H](CC(=O)NCCCC[C@H](NC(=O)[C@H](CC(C)C)NC(=O)[C@@H](NC(=O)CNC(=O)c2ccccc2)C(C)C)C(=O)N[C@@H](CCC(=O)O)C(=O)N[C@@H](Cc2ccc(O)cc2)C(=O)NCC(=O)N[C@H](C(N)=O)C(C)C)C(=O)O)c(C)c1 (Bz-GVLK(X62)EYGV-NH2) |
| 0.592 |  | CC(C)C[C@H](NC(=O)[C@@H](NC(=O)CNC(=O)c1ccccc1)C(C)C)C(=O)N[C@@H](CCCCNC(=O)C[C@@H](SCCc1ccccc1)C(=O)O)C(=O)N[C@@H](CCC(=O)O)C(=O)N[C@@H](Cc1ccc(O)cc1)C(=O)NCC(=O)N[C@H](C(N)=O)C(C)C (Bz-GVLK(X26)EYGV-NH2) |
| > 40 |  | CC(C)C[C@H](NC(=O)[C@@H](NC(=O)CNC(=O)c1ccccc1)C(C)C)C(=O)N[C@@H](CCCCNC(=O)CC(C)Sc1ccc2ccccc2c1)C(=O)N[C@@H](CCC(=O)O)C(=O)N[C@@H](Cc1ccc(O)cc1)C(=O)NCC(=O)N[C@H](C(N)=O)C(C)C (stereo partly drawn) (Bz-GVLK(X44)EYGV-NH2) |
| 1.24 |  | CC(C)C[C@H](NC(=O)[C@@H](NC(=O)CNC(=O)c1ccccc1)C(C)C)C(=O)N[C@@H](CCCCNC(=O)C[C@@H](SCc1ccc(C(C)(C)C)cc1)C(=O)O)C(=O)N[C@@H](CCC(=O)O)C(=O)N[C@@H](Cc1ccc(O)cc1)C(=O)NCC(=O)N[C@H](C(N)=O)C(C)C (Bz-GVLK(X15)EYGV-NH2) |
| 1.61 |  | CC(C)C[C@H](NC(=O)[C@@H](NC(=O)CNC(=O)c1ccccc1)C(C)C)C(=O)N[C@@H](CCCCNC(=O)C[C@@H](Sc1ccc(Cl)cc1)C(=O)O)C(=O)N[C@@H](CCC(=O)O)C(=O)N[C@@H](Cc1ccc(O)cc1)C(=O)NCC(=O)N[C@H](C(N)=O)C(C)C (Bz-GVLK(X57)EYGV-NH2) |
| 124 |  | O=C(C[C@H](Sc1ccc2ccccc2c1)C(=O)O)NCc1ccccc1 |
| 3.39 |  | CC(C)C[C@H](NC(=O)[C@@H](NC(=O)CNC(=O)c1ccccc1)C(C)C)C(=O)N[C@@H](CCCCNC(=O)C[C@@H](Sc1cccc(Cl)c1Cl)C(=O)O)C(=O)N[C@@H](CCC(=O)O)C(=O)N[C@@H](Cc1ccc(O)cc1)C(=O)NCC(=O)N[C@H](C(N)=O)C(C)C (Bz-GVLK(X58)EYGV-NH2) |
| 0.647 |  | CC(C)C[C@H](NC(=O)[C@@H](NC(=O)CNC(=O)c1ccccc1)C(C)C)C(=O)N[C@@H](CCCCNC(=O)C[C@@H](Sc1cc(Cl)cc(Cl)c1)C(=O)O)C(=O)N[C@@H](CCC(=O)O)C(=O)N[C@@H](Cc1ccc(O)cc1)C(=O)NCC(=O)N[C@H](C(N)=O)C(C)C (Bz-GVLK(X17)EYGV-NH2) |
| 2.06 |  | CC(C)C[C@H](NC(=O)[C@@H](NC(=O)CNC(=O)c1ccccc1)C(C)C)C(=O)N[C@@H](CCCCNC(=O)C[C@@H](SCCCc1ccccc1)C(=O)O)C(=O)N[C@@H](CCC(=O)O)C(=O)N[C@@H](Cc1ccc(O)cc1)C(=O)NCC(=O)N[C@H](C(N)=O)C(C)C (Bz-GVLK(X48)EYGV-NH2) |
